Blank lines part the entries; values can stand above or below the molecule they belong to. Peptide text beside a SMILES is read from it. * marks the point of attachment. Cbz = O=C(OCc1ccccc1)*
Assays:
[1] = target: T1, recombinant FLAG-PSME1 (PSME1_C22) (Homo sapiens, UniProt Q06323); assay: Gel-based ABPP for PSME1 cysteine engagement; assay type: binding; conditions: HEK293T lysates, WT or C22A FLAG-PSME1, 2.5 μM, 30 min
T1 construct: FLAG (C); expressed in transfected cells; host or cells: HEK293T (lysate treated in vitro)
T1 sequence (Q06323 whole entry): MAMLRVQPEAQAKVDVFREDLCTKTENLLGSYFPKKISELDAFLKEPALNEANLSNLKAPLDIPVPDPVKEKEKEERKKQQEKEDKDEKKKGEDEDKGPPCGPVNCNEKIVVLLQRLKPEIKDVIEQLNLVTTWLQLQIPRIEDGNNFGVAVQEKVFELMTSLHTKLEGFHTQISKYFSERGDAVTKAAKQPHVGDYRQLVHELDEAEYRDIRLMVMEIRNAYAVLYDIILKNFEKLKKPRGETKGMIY
Description: C-terminally FLAG-tagged PSME1 WT or C22A were transiently expressed in HEK293T cells, harvested 48 hours later, then cells were divided into aliquots, flash frozen and stored at −80 C. On the day of the experiment, an aliquot of cells were thawed, lysed by sonication in ice-cold PBS supplemented with cOmplete protease inhibitors (1 tablet/10 mL of PBS). normalized to 2.0 mg/mL, and divided into 25 μL aliquots. 1 μL of DMSO or compound (25× stock) was incubated with lysates for 1.5 hours at RT, followed by incubation with 1 μL of 62.5 μM MY-11B click probe (final concentration […]) for an additional 30 minutes. Reagents for the CuAAC click reaction were pre-mixed prior to addition to the samples. After 1 hour of click labeling, 4×SDS running buffer was added to samples, which were then analyzed by SDS-PAGE. ImageJ was used to quantify rhodamine band intensities, and GraphPad PRISM Version 9.0.0 was used to generate IC50 curves (four-parameter variable slope least squares regression).

[2] = target: T2, SF3B1 (~150 kDa protein) (Homo sapiens, UniProt O75533+Q7RTV0); assay: Gel-based ABPP for SF3B1 cysteine engagement; assay type: binding; conditions: 22Rv1 cells, 1 μM alkyne probe, 1 h
T2 construct: Cysteine engagement data from 22Rv1 cells treated; endogenous in cells; host or cells: 22Rv1
T2 sequence (O75533 whole entry): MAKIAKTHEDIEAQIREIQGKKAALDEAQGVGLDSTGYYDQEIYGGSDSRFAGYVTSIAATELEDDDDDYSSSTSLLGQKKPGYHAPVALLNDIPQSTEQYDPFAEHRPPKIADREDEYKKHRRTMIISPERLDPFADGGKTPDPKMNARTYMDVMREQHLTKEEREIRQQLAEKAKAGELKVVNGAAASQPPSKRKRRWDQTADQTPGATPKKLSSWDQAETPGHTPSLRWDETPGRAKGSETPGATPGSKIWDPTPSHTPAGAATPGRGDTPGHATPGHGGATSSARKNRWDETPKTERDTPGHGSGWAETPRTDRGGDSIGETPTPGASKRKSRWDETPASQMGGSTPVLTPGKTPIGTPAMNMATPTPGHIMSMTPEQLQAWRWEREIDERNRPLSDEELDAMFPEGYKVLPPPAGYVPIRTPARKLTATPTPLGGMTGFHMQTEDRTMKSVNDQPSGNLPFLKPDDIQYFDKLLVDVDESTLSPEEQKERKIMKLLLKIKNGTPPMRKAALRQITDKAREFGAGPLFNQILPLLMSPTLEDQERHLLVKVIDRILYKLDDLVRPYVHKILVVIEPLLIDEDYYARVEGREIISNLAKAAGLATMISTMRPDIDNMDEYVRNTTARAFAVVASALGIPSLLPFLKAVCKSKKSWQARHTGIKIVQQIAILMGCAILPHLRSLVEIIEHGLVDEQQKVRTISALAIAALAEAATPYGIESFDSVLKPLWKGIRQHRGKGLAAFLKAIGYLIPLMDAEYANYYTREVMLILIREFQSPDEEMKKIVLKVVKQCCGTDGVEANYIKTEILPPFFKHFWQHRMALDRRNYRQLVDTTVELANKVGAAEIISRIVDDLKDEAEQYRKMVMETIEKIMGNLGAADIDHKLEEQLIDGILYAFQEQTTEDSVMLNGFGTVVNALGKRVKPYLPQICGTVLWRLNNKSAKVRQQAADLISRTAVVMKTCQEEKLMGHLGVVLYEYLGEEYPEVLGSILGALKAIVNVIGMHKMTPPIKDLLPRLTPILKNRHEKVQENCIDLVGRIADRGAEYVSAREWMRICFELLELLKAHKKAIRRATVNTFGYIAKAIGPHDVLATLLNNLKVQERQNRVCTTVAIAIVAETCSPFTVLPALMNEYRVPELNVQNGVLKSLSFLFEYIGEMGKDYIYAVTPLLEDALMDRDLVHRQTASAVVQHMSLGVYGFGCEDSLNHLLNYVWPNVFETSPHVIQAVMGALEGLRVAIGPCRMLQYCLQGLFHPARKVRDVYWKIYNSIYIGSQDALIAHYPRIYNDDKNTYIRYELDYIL
T2 sequence (Q7RTV0 whole entry): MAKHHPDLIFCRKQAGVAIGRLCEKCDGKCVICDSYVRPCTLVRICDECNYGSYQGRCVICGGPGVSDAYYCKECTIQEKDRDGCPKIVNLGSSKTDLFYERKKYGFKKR
T2 sequence (Q15393 whole entry partner): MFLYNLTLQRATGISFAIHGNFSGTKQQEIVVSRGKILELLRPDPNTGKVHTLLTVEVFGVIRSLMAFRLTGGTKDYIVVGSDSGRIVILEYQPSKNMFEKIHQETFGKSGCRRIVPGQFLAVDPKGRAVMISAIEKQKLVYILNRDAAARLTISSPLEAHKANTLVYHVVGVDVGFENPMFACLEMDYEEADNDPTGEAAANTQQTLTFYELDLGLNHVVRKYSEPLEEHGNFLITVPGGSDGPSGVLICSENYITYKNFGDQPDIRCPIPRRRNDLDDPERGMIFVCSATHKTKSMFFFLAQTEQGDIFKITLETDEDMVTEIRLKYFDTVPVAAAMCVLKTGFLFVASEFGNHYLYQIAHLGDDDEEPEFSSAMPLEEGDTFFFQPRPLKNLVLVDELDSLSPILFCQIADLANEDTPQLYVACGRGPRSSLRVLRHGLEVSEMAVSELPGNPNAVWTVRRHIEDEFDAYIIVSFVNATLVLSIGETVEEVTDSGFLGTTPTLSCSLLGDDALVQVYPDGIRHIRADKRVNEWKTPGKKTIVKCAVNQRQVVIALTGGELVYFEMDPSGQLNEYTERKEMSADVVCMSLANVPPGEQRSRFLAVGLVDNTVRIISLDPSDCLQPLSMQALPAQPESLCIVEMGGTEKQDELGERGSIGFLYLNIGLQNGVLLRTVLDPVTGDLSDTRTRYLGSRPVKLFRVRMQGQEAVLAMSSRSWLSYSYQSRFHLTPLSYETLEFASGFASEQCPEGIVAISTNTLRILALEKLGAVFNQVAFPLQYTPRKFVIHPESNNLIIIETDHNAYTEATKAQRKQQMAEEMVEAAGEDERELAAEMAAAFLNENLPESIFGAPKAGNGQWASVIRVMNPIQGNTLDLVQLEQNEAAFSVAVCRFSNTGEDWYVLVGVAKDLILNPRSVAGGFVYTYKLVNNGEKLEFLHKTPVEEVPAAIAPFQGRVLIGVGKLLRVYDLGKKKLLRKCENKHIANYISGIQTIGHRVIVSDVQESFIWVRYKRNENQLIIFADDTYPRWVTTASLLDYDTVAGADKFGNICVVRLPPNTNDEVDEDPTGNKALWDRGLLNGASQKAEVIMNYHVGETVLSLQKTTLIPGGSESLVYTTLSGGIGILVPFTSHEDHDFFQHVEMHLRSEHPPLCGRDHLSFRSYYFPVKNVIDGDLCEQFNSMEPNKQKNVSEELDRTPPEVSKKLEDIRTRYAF
T2 sequence (Q9BWJ5 whole entry partner): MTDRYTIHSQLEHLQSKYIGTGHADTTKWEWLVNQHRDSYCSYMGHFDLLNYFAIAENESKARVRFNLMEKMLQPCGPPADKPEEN
Description: 22Rv1 cells were treated with indicated compounds for 24 h, chased with click probe for 1 h in situ, harvested and lysed in PBS with protease inhibitors (cOmplete), and then normalized to 2.0 mg/mL. Reagents for the CuAAC click reaction were pre-mixed prior to addition to the samples (3 μL of click reaction mix for 25 μL of lysate). After 1 hour of click labeling, 4×SDS running buffer was added to samples, which were then analyzed by SDS-PAGE.

[3] = test system: SIINFEKL presentation in E.G7-Ova cells; assay: FACS analysis with citric acid wash; assay type: cell-based, mouse; conditions: 4 h treatment, recovery up to 4 h
Description: (§1) E.G7-Ova cells (2 million/mL) were treated with compounds for 4 hours, washed with PBS, and then washed with 1 mL of 131 mM citric acid for 2 minutes, quenched with 1 mL 66 mM NaH2PO4, and then washed with PBS 3 times. Cells were then resuspended in warm RPMI and allowed to recover for the indicated period, after which cells were washed with PBS and transferred to 96 well plates for staining. Each well was washed with 200 μL PBS, and then stained for 20 minutes with 50 μL of staining solution: 1:1000 fixable near-IR LIVE/DEAD stain (Invitrogen) and 1:200 dilution of anti-SIINFEKL (BioLegend) or anti-Kb (BioLegend) antibody in FACS buffer (2% FBS in PBS supplemented with PenStrep and sterile filtered). Additional wells were used as unstained or singly-stained controls. After staining, cells were washed with PBS, then fixed in 200 μL 4% paraformaldehyde in PBS for 15 minutes. Cells were resuspended in 75 μL FACS buffer and analyzed on a Novocyte flow cytometer. The corresponding data in FIG. 2J are presented as the average percentage of median fluorescence intensity relative to DMSO treated control±SD from n=4 replicates. The corresponding data in FIG. 2K are presented as the average percentage of MFI relative to DMSO treated control±SD from n=3 replicates. Statistical analysis was performed using GraphPad PRISM Version 9.0.0.

[4] = test system: overall MHC-I presentation in E.G7-Ova cells; assay: FACS analysis with citric acid wash; assay type: cell-based, mouse; conditions: 4 h treatment, recovery up to 4 h
Description: as §1

[5] = test system: 22Rv1 cells; assay: Proliferation assay (CellTiter Glo); assay type: cell-based, human; conditions: 72 h
Description: Cells were seeded at 5000 cells per well (50 μL medium) in 96-well flat bottom white wall plates. After 24 h, 50 μL of medium containing DMSO or compound dilutions (2× final concentration from 1000× stocks) were added to the wells. At the time of compound addition, a reference plate to determine the cell population density at time 0 (TO) was assayed using CellTiter Glo reagent (50 μL added to each well). After 72 h in culture, the remaining plates were assayed using CellTiter Glo. After 30 min of shaking at room temperature, luminescence was analyzed using a CLARIOstar (BMG Labtech) plate reader. Raw values were normalized using GraphPad PRISM software version 9.0.0. Lines of best fit were generated using a four-parameter variable slope least squares regression.

[6] = test system: SF3B1 interacting proteins; assay: SF3B1 co-immunoprecipitation-MS; assay type: cell-based, human; conditions: HEK293T cells, 5 μM WX-02-23 or 10 nM pladienolide B, 3 h
Description: HEK293T cells were treated in situ with DMSO, 5 μM of WX-02-23/WX-02-43, or 10 nM pladienolide B for 3 hours. Cells were harvested, washed with ice-cold PBS, and lysed in ColP lysis buffer (0.5% NP-40, 100 mM EPPS, 150 mM NaCl, cOmplete protease inhibitor). Lysates centrifuged at 16,000 g for 3 minutes, normalized to 2.0 mg/mL and 500 μL of each lysate was aliquoted to a clean eppendorf tube.
Lysates were incubated with 5 μL of anti-IgG or anti-SF3B1 (CST) for 2 hours at 4 C, followed by 1 hour with 25 μL of protein-A agarose beads. Bead were washed twice with ColP lysis buffer, and then twice with 100 mM EPPS, followed by elution with 8 M urea in EPPS at 65 C for 10 min. […] Samples were then trypsinized at 37 C overnight (2 ug of trypsin per sample), then TMT labeled and desalted.

[7] = test system: p27; assay: anti-p27 western blot; assay type: cell-based, human; conditions: 22Rv1 cells, 24 h
[8] = test system: mRNA splicing in 22Rv1 cells; assay: RNA sequencing, alternative splicing (rMATS); assay type: cell-based, human; conditions: 8 hr, RNA-seq
Description: RNA sequencing libraries were prepared using the NEBNext Ultra II RNA Library Prep Kit for Illumina following manufacturer's instructions (NEB, Ipswich, MA, USA). mRNAs were first enriched with Oligo(dT) beads. Enriched mRNAs were fragmented for 15 minutes at 94° C. First strand and second strand cDNAs were subsequently synthesized. cDNA fragments were end repaired and adenylated at 3′ends, and universal adapters were ligated to cDNA fragments, followed by index addition and library enrichment by limited-cycle PCR. The sequencing libraries were validated on the Agilent TapeStation (Agilent Technologies, Palo Alto, CA, USA), and quantified by using Qubit 2.0 Fluorometer (Invitrogen, Carlsbad, CA) as well as by quantitative PCR (KAPA Biosystems, Wilmington, MA, USA). FASTQ files were first trimmed using Trim_galore (v0.6.4) to remove sequencing adapters and low quality (Q<15) reads. Trimmed sequencing reads were aligned to the human Hg19 reference genome (GENCODE, GRCh37.p13) using STAR (v2.7.5). SAM files were subsequently converted to BAM files, sorted, and indexed using samtools (v1.9). […] Read counting across genomic features was performed using featureCounts (part of the subread package; v1.5.0) using the following parameters: -p -T 20 -O -F GTF -t exon. […]
For quantification of alternative RNA splicing, BAM files generated by STAR/Samtools were analyzed using rMATS (v4.1.1) using the GENCODE (v19) GTF annotation for Hg19 (GRCh37.p13) and the following parameters: -t paired --libType fr-unstranded—readLength 150—novelSS. To utilize reads shorted than 150b.p. resulting from adapter and/or QC trimming by trim_galore, rMATS was programmed to accept soft-clipped reads of variable length. Enumeration of isoform counts was performed using only reads that span the splice junction directly. To identify high confidence AS events, events were considered significant if (i) the inclusion level difference was greater than 20% compared to DMSO, (ii) the False Discovery Rate (FDR) was smaller than 0.05, and (iii) there were a minimum of 20 reads mapping to the splice junction. […]

Molecule: C#Cc1ccc([C@H]2CN(C(=O)C=C)[C@H]2C(=O)Nc2cccc3cccnc23)cc1 [MY-11B, (2R,3S)-1-acryloyl-3-(4-ethynylphenyl)-N-(quinolin-8-yl)azetidine-2-carboxamide]
alkyne probe labeling of PSME1_C22 (CuAAC, azide-rhodamine) [1]: site-specific and stereoselective engagement

alkyne probe labeling of ~150 kDa protein [2]: labeled an ˜150 kDa protein
Molecule: C#CCOc1ccc2[nH]c3c(c2c1)C[C@@H](C(=O)OC)N(C(=O)C=C)[C@@H]3c1ccc2c(c1)OCO2 [WX-01-10, methyl (1R,3S)-2-acryloyl-1-(benzo[d][1,3]dioxol-5-yl)-6-(prop-2-yn-1-yloxy)-2,3,4,9-tetra-hydro-1H-pyrido[3,4-b]indole-3-carboxylate]

Molecule: CC(C)C[C@@H](C=O)NC(=O)[C@H](CC(C)C)NC(=O)[C@H](CC(C)C)NC(=O)OCc1ccccc1 [MG132, reference compound] (Cbz-Leu-Leu-Leu-aldehyde)
SIINFEKL presentation after acid wash [3]: suppressed both SIINFEKL peptide and MHC-I presentation | overall MHC-I presentation after acid wash [4]: suppressed both SIINFEKL peptide and MHC-I presentation

Molecule: pladienolide B [reference compound]
anti-proliferative effect [5]: strong anti-proliferative activity | SF3B1 interactions (DDX42 association) [6]: similar, but not identical reshaping of SF3B1 interactions | p27 expression [7]: induced expression of p27 | mRNA splicing changes [8]: induction of both intron retention and exon skipping events

— patent US20250034216A1, “STEREOSELECTIVE COVALENT LIGANDS FOR ONCOGENIC AND IMMUNOLOGICAL PROTEINS” (The Scripps Research Institute, priority 2021, published 2025)
